SMILES strings stand for the structures.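 Tested at 5 concentrations; 48 h exposure; 96-well plates; endpoints linearly interpolated, else capped at highest concentration. At the GI50, growth is halved.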 Calls of active or inactive are those of the source. Rule as the data show it: active = GI50 up to about 1.1 µM and inactive = higher. Bounds are passed on as bounds.

Among the test systems are 786-0; A498; BT-549; COLO 205; HCC 2998; HCT-15; HOP-62; M14; MDA-N; MOLT-4; Malme-3M; NCI-H23; NCI/ADR-RES; PC-3; SF-268; SF-539; SK-MEL-2; TK-10; UACC-257; UACC-62.
What all share (experiment): growth of human tumour cells (NCI), 48 h

Turning to `Nc1nc(N)c2ncn(-c3ccc(Cl)c(Cl)c3)c2n1`, the GI50 in the test on 786-0 is 14.1 µM (inactive); with A498 it was 13.3 µM (inactive); in the test with BT-549, 21.9 µM (inactive); in the test with COLO 205 it was 14.9 µM (inactive); with HCC 2998, 27.4 µM (inactive); in the test with HCT-15 it was 26 µM. Moreover, the GI50 in the test with HOP-62 was 29.6 µM (inactive); with M14 it was 42.7 µM (inactive); in the test on MDA-N it was 30.9 µM (inactive); with MOLT-4 it was 12.2 µM (inactive); in the test with Malme-3M it was 17.9 µM (inactive); in the test with NCI-H23, 15.9 µM (inactive). Also, the GI50 with NCI/ADR-RES is 37.7 µM (inactive); in the test with PC-3, 24.1 µM (inactive); with SF-268, 31.7 µM (inactive); with SF-539 it was 21 µM (inactive); in the test with SK-MEL-2, 12.4 µM (inactive); in the test with TK-10, 16.7 µM (inactive). The GI50 in the test with UACC-257 is 27.4 µM (inactive); in the test with UACC-62 it was 10.1 µM (inactive).

Regarding `O=C(O)C1=C(C(=O)O)N(c2ccncc2)C(c2ccco2)=CC1c1ccccc1[N+](=O)[O-]` (stereo not given), the GI50 in the test with 786-0 was 2.04 µM (inactive); in the test with A498, 11.8 µM (inactive); with BT-549 it was 13.2 µM (inactive); in the test on COLO 205 it was 14.2 µM (inactive); in the test on HCC 2998 it was 1.9 µM (inactive); in the test with HCT-15 it was 1.81 µM. Besides, the GI50 with HOP-62 was 13.4 µM (inactive); in the test with M14 it was 7.01 µM (inactive); in the test with MDA-N, 5.56 µM (inactive); in the test on MOLT-4, 3.44 µM (inactive); in the test on Malme-3M, 0.925 µM (active); in the test on NCI-H23 it was 12.4 µM (inactive). In addition, the GI50 is 22.6 µM (inactive) with NCI/ADR-RES; 13.4 µM (inactive) in the test on PC-3; 13.1 µM (inactive) in the test with SF-268; 2.11 µM (inactive) in the test with SF-539; 17.8 µM (inactive) in the test with SK-MEL-2; 6.01 µM (inactive) in the test with TK-10. Also, the GI50 with UACC-257 is 2.22 µM (inactive); in the test on UACC-62, 15.3 µM (inactive).

In the case of `CCCCCC(CO)C(O)(C(F)(F)F)C(F)(F)F` (stereo not given), the GI50 with 786-0 is > 10 µM (inactive); in the test on A498 it was > 10 µM (inactive); with BT-549 it was > 10 µM (inactive); in the test on COLO 205 it was > 10 µM (inactive); in the test with HCC 2998, > 10 µM (inactive); in the test on HCT-15, more than 10 µM. In addition, the GI50 with HOP-62, with M14, with MDA-N, in the test on MOLT-4, in the test on Malme-3M and in the test with NCI-H23 was > 10 µM (inactive) each time. The GI50 with NCI/ADR-RES, in the test on PC-3, in the test on SF-268, in the test with SF-539, with SK-MEL-2 and with TK-10 was > 10 µM (inactive) throughout. Also, the GI50 with UACC-257 and in the test with UACC-62 was > 10 µM (inactive) in each case.

Regarding `O=C(NC(Cc1c[nH]c2ccccc12)C(=O)O)/C(=C/c1ccccc1)NC(=O)c1ccccc1` (stereo not given), the GI50 in the test on 786-0 is > 100 µM (inactive); in the test with A498, > 81.8 µM (inactive); in the test with BT-549, 43.8 µM (inactive); in the test with COLO 205 it was > 100 µM (inactive); with HCC 2998 it was 78.3 µM (inactive); with HCT-15, more than 55.1 µM. For the same molecule, the GI50 in the test on HOP-62 is 41.3 µM (inactive); in the test on M14, 46 µM (inactive); with MDA-N, 82.4 µM (inactive); in the test on MOLT-4 it was 51.1 µM (inactive); with Malme-3M it was 22.5 µM (inactive); in the test on NCI-H23, > 83.2 µM (inactive). The GI50 with NCI/ADR-RES was 36.6 µM (inactive); with PC-3, 50.5 µM (inactive); in the test on SF-268, > 100 µM (inactive); in the test on SF-539, 49.4 µM (inactive); with SK-MEL-2, 57.5 µM (inactive); with TK-10 it was > 72.8 µM (inactive). For the same molecule, the results for the GI50 in the test with UACC-257 and in the test on UACC-62 were > 88.7 µM (inactive) and 41.2 µM (inactive), respectively.

For `COc1ccc(P2(=S)OCCOP(=S)(c3ccc(OC)cc3)S2)cc1` (stereo not given), the GI50 with 786-0 was 4.79 µM (inactive); in the test with A498 it was 2.45 µM (inactive); in the test on BT-549, 13.9 µM (inactive); in the test with COLO 205 it was 3.56 µM (inactive); in the test on HCC 2998 it was 2.87 µM (inactive); with HCT-15 it was 2.29 µM. Also, the GI50 was 3.58 µM (inactive) with HOP-62; 5.14 µM (inactive) in the test with M14; 2.29 µM (inactive) in the test on MDA-N; 2.87 µM (inactive) in the test on MOLT-4; 13.7 µM (inactive) in the test with Malme-3M; 4.7 µM (inactive) in the test on NCI-H23. The GI50 with NCI/ADR-RES is 4.41 µM (inactive); in the test on PC-3, 2.26 µM (inactive); in the test on SF-268 it was 3.99 µM (inactive); with SF-539 it was 2.76 µM (inactive); with SK-MEL-2, 3.51 µM (inactive); with TK-10 it was 16.3 µM (inactive). The GI50 in the test on UACC-257 is 11.2 µM (inactive); in the test on UACC-62, 4.16 µM (inactive).

The record behind these values is ChEMBL document CHEMBL1201862, “PubChem BioAssay data set” (2004).
